# Results: US12472228B2, “Use of exosome-based delivery of NF-κB inhibitors” (Ilias Biologics Inc., priority 2020, dated 2025)
# B1: srIκB: non-degradable IκBα protein with mutations at serine residues 32 and 36 (protein, listed as Homo sapiens)
# chain: MFQAAERPQEWAMEGPRDGLKKERLLDDRHDAGLDAMKDEEYEQMVKELQEIRLEPQEVPRGSEPWKQQLTEDGDSFLHLAIIHEEKALTMEVIRQVKGDLAFLNFQNNLQQTPLHLAVITNQPEIAEALLGAGCDPELRDFRGNTPLHLACEQGCLASVGVLTQSCTTPHLHSILKATNYNGHTCLHLASIHGYLGIVELLVSLGADVNAQEPCNGRTALHLAVDLQNPDLVSLLLKCGADVNRVTYQGYSPYQLTWGRPSTRIQQQLGQLTLENLQMLPESEDEESYDTESEFTEFTEDELPYDDCVFGGQRLTL
# Tests used:
# [1] = system: experimental ischemic AKI model; conditions: by lowering inflammatory cytokine expression and macrophages/monocyte accumulation; cited from earlier work
# [2] = system: THP-1 cells; assay: LPS-stimulated THP-1 cells, cytokine secretion (ELISA); assay type: cell-based, human; conditions: JSH-23 50 μM, Exo-srIκB 5×10^6 particles
# Procedure: (A) HEK293-NF-κB-luciferase cells (2×10^4 cells) were cultured either with Exo-Naïve or with Exo-srIκB 2×10^5 particles. After 24 h, the cells were treated with 0.5 ng/ml TNF-α for an additional 18 h. Luciferase activities were measured and normalized. (B) Exo-srIκB dose-dependently repressed NF-κB activation in NF-κB-luciferase cells. (C) THP-1 cells (5×10^5 cells) were stimulated with […] LPS and then treated with Exo-srIκBs 5×10^6 particles. The supernatants were collected and assayed for the production of TNF-α and monocyte chemoattractant protein (MCP)-1. […] Cells were harvested into a single-cell suspension and assessed through flow cytometry using specific phycoerythrin (PE)-conjugated antibodies against human intercellular cell adhesion molecule (ICAM)-1.
# The TNF-α, IL-8 and MCP-1 levels in supernatants collected from THP-1 and HUVEC cultures were measured using commercial ELISA kits (R&D Systems, Minneapolis, MN, USA), and NF-κB activity in HUVECs was measured using the Trans AM NF-κB p65 kit (Active Motif, Carlsbad, CA, USA). TNF-α, CCL-4/macrophage inflammatory protein (MIP)-1β, IL-6, and IL-1β levels in mouse plasma collected through cardiac puncture at the indicated time points after the high-grade CLP procedure were measured using the Mouse Magnetic Luminex eScreening Assay kit (R&D Systems). […]
# [3] = system: lung IRI model; conditions: decreases neutrophil infiltration and pulmonary edema; cited from earlier work
molecule,measurement,setting,value
infliximab: anti-TNF-α agent,effect in the experimental ischemic AKI model,[1],protective effects
Cc1ccc(NCCCc2ccccc2)c(N)c1 [JSH-23],inhibiting LPS-induced NF-κB activation and cytokine production: Exo-srIκB versus JSH-23,[2],comparable effects
B1,effect in the lung IRI model,[3],proven protective effects
